Assay [1] addresses Serine/threonine-protein kinase STK11 (Homo sapiens) (UniProt Q15831). The experiment in a line: Inhibition of LKB1 Lys2 labeling site in human HEL cell lysate at 10 uM by KiNativ profiling analysis relative to control. The class given is subcellular.
The target in assay [2] is Serine/threonine-protein kinase A-Raf (Homo sapiens) (UniProt P10398). Briefly: Inhibition of ARAF Lys2 labeling site in human HEL cell lysate at 10 uM by KiNativ profiling analysis relative to control. Format: subcellular.
Assay [3] has as its target Serine/threonine-protein kinase MARK1 (Homo sapiens) (UniProt Q9P0L2). Briefly: Inhibition of T7 bacteriophage fused human MARK1 at 10 uM by KINOMEscan analysis relative to control; values are per cent of control.
In assay [4] the test system is Tyrosine-protein kinase ABL1 (Homo sapiens), P00519 [Q252H]. The experiment in a line: Inhibition of T7 bacteriophage fused human phosphorylated ABL1 Q252H mutant at 10 uM by KINOMEscan analysis relative to control.
The target of assay [5] is Casein kinase I isoform gamma-1 (Homo sapiens) (UniProt Q9HCP0). Briefly: Inhibition of T7 bacteriophage fused human CSNK1G1 at 10 uM by KINOMEscan analysis relative to control.
Sequence of Casein kinase I isoform gamma-1 (Homo sapiens) (Q9HCP0 whole entry, looked up, the tested form may be a part, canonical isoform): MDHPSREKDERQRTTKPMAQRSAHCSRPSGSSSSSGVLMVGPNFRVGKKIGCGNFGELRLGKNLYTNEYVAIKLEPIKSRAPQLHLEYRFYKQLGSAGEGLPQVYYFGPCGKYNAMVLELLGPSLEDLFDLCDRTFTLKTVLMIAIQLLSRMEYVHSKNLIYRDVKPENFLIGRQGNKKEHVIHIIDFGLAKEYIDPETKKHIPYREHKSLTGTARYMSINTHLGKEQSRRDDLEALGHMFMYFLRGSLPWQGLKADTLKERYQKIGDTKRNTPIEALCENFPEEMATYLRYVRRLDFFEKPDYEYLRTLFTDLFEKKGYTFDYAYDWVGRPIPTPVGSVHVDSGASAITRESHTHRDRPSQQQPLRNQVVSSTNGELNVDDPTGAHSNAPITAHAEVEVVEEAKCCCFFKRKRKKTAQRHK
The target in assay [6] is Citron Rho-interacting kinase (Homo sapiens) (UniProt O14578). Briefly: Inhibition of T7 bacteriophage fused human CIT at 10 uM by KINOMEscan analysis relative to control; values are per cent of control.
Assay [7] concerns the target Receptor-interacting serine/threonine-protein kinase 1 (Homo sapiens) (UniProt Q13546). Briefly: Inhibition of T7 bacteriophage fused human RIPK1 at 10 uM by KINOMEscan analysis relative to control.
The target of assay [8] is Mitogen-activated protein kinase kinase kinase 10 (Homo sapiens) (UniProt Q02779). Briefly: Inhibition of T7 bacteriophage fused human MLK2 at 10 uM by KINOMEscan analysis relative to control.
The target of assay [9] is Myosin-IIIb (Homo sapiens) (UniProt Q8WXR4). The experiment in a line: Inhibition of T7 bacteriophage fused human MYO3B at 10 uM by KINOMEscan analysis relative to control.
The target in assay [10] is Serine/threonine-protein kinase Nek2 (Homo sapiens) (UniProt P51955). The experiment in a line: Inhibition of T7 bacteriophage fused human NEK2 at 10 uM by KINOMEscan analysis relative to control.
Assay [11] concerns the target Serine/threonine-protein kinase ICK (Homo sapiens) (UniProt Q9UPZ9). Briefly: Inhibition of T7 bacteriophage fused human ICK at 10 uM by KINOMEscan analysis relative to control; values are per cent of control.
Assay [12] deals with Ribosomal protein S6 kinase alpha-4 (Homo sapiens) (UniProt O75676). The experiment in a line: Inhibition of T7 bacteriophage fused human N-terminal RPS6KA4 Kinase domain-1 at 10 uM by KINOMEscan analysis relative to control.
Assay [13] has as its system Tyrosine-protein kinase ABL1 (Homo sapiens), P00519 [Q252H]. The experiment in a line: Inhibition of T7 bacteriophage fused human nonphosphorylated ABL1 Q252H mutant at 10 uM by KINOMEscan analysis relative to control.
Assay [14] deals with Ephrin type-B receptor 4 (Homo sapiens) (UniProt P54760). The experiment in a line: Inhibition of T7 bacteriophage fused human EPHB4 at 10 uM by KINOMEscan analysis relative to control.
Sequence of Ephrin type-B receptor 4 (Homo sapiens) (P54760 whole entry, the tested form may be a part): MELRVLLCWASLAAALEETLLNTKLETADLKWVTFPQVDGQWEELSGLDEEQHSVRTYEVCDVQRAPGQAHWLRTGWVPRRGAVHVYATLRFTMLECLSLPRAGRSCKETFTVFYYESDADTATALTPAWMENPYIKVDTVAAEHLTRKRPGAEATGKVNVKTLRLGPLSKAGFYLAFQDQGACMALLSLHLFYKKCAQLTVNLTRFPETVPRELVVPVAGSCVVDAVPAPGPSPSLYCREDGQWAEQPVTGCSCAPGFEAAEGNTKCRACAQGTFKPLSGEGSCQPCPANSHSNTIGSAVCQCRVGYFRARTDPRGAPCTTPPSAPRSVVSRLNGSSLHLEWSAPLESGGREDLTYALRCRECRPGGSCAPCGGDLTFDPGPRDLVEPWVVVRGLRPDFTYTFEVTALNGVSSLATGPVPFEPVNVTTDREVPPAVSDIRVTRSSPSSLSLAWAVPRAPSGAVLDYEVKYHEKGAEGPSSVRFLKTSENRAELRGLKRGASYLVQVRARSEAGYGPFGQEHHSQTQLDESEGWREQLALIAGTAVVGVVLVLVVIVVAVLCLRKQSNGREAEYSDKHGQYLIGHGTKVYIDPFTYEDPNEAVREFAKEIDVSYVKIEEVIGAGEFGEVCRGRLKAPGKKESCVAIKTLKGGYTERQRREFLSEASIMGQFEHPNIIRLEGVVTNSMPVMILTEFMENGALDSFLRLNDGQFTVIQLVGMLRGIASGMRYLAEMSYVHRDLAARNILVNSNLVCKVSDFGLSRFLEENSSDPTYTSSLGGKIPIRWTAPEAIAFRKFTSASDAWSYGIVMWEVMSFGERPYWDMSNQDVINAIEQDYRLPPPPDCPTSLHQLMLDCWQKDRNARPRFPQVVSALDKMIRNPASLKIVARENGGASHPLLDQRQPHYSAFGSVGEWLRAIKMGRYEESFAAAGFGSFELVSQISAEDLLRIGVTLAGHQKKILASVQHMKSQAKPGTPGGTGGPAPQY
The target of assay [15] is LIM domain kinase 2 (Homo sapiens) (UniProt P53671). Briefly: Inhibition of T7 bacteriophage fused human LIMK2 at 10 uM by KINOMEscan analysis relative to control.
In assay [16] the target is Inhibitor of nuclear factor kappa-B kinase subunit beta (Homo sapiens) (UniProt O14920). Briefly: Inhibition of T7 bacteriophage fused human IKK-beta at 10 uM by KINOMEscan analysis relative to control.
Assay [17] addresses Dual specificity tyrosine-phosphorylation-regulated kinase 2 (Homo sapiens) (UniProt Q92630). The experiment in a line: Inhibition of T7 bacteriophage fused human DYRK2 at 10 uM by KINOMEscan analysis relative to control; values are per cent of control.
For assay [18], the target named is Vascular endothelial growth factor receptor 1 (Homo sapiens) (UniProt P17948). The experiment in a line: Inhibition of T7 bacteriophage fused human FLT1 at 10 uM by KINOMEscan analysis relative to control.
The target in assay [19] is Dual specificity mitogen-activated protein kinase kinase 6 (Homo sapiens) (UniProt P52564). The experiment in a line: Inhibition of T7 bacteriophage fused human MEK6 at 10 uM by KINOMEscan analysis relative to control; values are per cent of control.
Sequence of Dual specificity mitogen-activated protein kinase kinase 6 (Homo sapiens) (P52564 whole entry, the tested form may be a part): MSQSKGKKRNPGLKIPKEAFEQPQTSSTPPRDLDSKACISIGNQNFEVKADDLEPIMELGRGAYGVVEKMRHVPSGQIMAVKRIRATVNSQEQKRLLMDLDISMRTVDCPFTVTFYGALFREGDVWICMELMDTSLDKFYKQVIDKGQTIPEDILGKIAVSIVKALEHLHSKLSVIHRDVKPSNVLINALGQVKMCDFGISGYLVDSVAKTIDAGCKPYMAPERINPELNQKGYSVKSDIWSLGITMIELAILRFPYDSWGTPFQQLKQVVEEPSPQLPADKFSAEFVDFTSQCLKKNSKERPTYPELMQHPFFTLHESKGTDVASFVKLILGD
Assay [20] addresses RAC-beta serine/threonine-protein kinase (Homo sapiens) (UniProt P31751). The experiment in a line: Inhibition of T7 bacteriophage fused human AKT2 at 10 uM by KINOMEscan analysis relative to control.
In assay [21] the target is Tyrosine-protein kinase JAK2 (Homo sapiens) (UniProt O60674). Briefly: Inhibition of T7 bacteriophage fused human JAK2 JH1catalytic domain at 10 uM by KINOMEscan analysis relative to control; values are per cent of control.
Sequence of Tyrosine-protein kinase JAK2 (Homo sapiens) (O60674 whole entry, the tested form may be a part): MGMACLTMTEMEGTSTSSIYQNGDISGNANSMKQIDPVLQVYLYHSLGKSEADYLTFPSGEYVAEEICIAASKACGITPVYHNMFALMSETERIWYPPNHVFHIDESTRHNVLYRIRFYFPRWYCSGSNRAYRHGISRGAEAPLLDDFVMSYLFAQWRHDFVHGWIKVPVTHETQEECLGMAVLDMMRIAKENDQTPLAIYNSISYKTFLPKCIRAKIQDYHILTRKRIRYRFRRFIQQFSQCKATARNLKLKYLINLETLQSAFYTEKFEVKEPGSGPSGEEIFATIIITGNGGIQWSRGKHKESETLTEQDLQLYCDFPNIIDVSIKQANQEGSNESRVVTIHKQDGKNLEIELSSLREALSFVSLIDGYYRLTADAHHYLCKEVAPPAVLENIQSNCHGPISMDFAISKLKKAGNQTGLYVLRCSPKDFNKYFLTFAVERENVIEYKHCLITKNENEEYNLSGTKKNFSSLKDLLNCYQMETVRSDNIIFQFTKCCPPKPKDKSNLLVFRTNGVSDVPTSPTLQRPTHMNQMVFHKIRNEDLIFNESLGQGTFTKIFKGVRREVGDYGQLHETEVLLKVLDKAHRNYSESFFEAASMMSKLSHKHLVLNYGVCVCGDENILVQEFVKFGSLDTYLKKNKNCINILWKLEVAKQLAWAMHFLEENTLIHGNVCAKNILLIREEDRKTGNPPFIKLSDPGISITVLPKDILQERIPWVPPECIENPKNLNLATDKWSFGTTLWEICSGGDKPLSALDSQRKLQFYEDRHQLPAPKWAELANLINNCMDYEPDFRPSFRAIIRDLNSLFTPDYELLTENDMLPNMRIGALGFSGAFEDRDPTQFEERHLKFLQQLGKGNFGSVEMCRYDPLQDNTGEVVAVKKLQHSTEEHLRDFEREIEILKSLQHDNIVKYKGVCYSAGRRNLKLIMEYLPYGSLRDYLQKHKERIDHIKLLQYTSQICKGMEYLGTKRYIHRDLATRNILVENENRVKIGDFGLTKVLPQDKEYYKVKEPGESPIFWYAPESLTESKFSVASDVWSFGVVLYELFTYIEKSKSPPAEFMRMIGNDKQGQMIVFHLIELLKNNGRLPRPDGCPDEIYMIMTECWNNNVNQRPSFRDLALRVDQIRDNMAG
For assay [22], the target named is Mitogen-activated protein kinase kinase kinase 15 (Homo sapiens) (UniProt Q6ZN16). Briefly: Inhibition of T7 bacteriophage fused human MAP3K15 at 10 uM by KINOMEscan analysis relative to control; values are per cent of control.
The target of assay [23] is Phosphatidylinositol 4,5-bisphosphate 3-kinase catalytic subunit gamma isoform (Homo sapiens) (UniProt P48736). Briefly: Inhibition of T7 bacteriophage fused human PIK3CG at 10 uM by KINOMEscan analysis relative to control.
Sequence of Phosphatidylinositol 4,5-bisphosphate 3-kinase catalytic subunit gamma isoform (Homo sapiens) (P48736 whole entry, looked up, the tested form may be a part, canonical isoform): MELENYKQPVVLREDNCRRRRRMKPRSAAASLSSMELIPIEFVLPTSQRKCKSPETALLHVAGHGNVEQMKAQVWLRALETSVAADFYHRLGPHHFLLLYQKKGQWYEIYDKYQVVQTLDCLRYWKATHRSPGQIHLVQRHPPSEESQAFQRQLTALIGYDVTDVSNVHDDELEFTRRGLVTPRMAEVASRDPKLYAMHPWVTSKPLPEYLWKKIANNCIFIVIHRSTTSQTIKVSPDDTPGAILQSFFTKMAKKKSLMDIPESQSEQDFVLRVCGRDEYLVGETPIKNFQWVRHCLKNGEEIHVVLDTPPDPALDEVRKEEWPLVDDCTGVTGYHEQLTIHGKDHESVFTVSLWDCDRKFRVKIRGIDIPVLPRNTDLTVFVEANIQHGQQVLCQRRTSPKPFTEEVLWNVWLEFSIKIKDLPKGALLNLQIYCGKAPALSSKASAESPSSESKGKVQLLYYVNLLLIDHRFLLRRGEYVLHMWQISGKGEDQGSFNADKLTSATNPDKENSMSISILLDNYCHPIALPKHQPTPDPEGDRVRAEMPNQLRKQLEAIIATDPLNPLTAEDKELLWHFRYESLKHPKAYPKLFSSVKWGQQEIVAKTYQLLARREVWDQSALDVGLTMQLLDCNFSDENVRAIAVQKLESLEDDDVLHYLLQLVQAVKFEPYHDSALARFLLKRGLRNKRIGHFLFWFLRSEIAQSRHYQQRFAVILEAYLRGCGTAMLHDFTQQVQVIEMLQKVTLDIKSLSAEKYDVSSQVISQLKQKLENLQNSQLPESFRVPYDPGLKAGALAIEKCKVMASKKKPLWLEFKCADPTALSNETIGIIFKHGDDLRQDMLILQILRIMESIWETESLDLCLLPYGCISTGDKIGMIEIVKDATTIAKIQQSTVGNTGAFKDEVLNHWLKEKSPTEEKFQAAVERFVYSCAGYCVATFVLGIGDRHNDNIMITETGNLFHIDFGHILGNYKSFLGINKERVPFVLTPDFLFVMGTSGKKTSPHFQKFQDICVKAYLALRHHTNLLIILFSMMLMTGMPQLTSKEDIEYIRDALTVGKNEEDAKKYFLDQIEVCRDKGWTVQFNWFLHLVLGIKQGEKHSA
Assay [24] has as its target Tyrosine-protein kinase ZAP-70 (Homo sapiens) (UniProt P43403). The experiment in a line: Inhibition of T7 bacteriophage fused human ZAP70 at 10 uM by KINOMEscan analysis relative to control.
For assay [25], the target named is MAP/microtubule affinity-regulating kinase 4 (Homo sapiens) (UniProt Q96L34). The experiment in a line: Inhibition of T7 bacteriophage fused human MARK4 at 10 uM by KINOMEscan analysis relative to control; values are per cent of control.
Assay [26] deals with Proto-oncogene tyrosine-protein kinase receptor Ret (Homo sapiens) (UniProt P07949). The experiment in a line: Inhibition of T7 bacteriophage fused human RET at 10 uM by KINOMEscan analysis relative to control.
Assay [27] concerns the target Tyrosine-protein kinase FRK (Homo sapiens) (UniProt P42685). Briefly: Inhibition of T7 bacteriophage fused human FRK at 10 uM by KINOMEscan analysis relative to control; values are per cent of control.
Assay [28] addresses Calcium/calmodulin-dependent protein kinase type II subunit delta (Homo sapiens) (UniProt Q13557). The experiment in a line: Inhibition of T7 bacteriophage fused human CAMK2D at 10 uM by KINOMEscan analysis relative to control.
Assay [29] has as its target Vascular endothelial growth factor receptor 3 (Homo sapiens) (UniProt P35916). Briefly: Inhibition of T7 bacteriophage fused human FLT4 at 10 uM by KINOMEscan analysis relative to control.
For assay [30], the system named is Tyrosine-protein kinase ABL1 (Homo sapiens), P00519 [T315I]. Briefly: Inhibition of T7 bacteriophage fused human nonphosphorylated ABL1 T315I mutant at 10 uM by KINOMEscan analysis relative to control.

This passage reports inhibition and residual activity results from ChEMBL document CHEMBL5678810.

Sequence of RAC-beta serine/threonine-protein kinase (Homo sapiens) (P31751 whole entry, the tested form may be a part): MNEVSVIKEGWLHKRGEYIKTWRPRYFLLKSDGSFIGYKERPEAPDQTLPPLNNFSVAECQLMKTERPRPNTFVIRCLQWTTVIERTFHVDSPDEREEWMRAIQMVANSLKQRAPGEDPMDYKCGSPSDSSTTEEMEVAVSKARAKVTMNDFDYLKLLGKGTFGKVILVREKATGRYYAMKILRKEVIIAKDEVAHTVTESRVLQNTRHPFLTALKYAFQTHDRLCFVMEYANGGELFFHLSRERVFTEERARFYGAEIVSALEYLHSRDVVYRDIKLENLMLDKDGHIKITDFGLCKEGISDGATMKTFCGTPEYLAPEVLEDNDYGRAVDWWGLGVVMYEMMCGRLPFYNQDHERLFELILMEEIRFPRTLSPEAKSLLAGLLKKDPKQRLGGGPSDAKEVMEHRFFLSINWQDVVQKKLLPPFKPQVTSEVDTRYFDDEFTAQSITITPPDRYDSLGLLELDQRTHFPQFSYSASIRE
Sequence of Tyrosine-protein kinase ZAP-70 (Homo sapiens) (P43403 whole entry, the tested form may be a part): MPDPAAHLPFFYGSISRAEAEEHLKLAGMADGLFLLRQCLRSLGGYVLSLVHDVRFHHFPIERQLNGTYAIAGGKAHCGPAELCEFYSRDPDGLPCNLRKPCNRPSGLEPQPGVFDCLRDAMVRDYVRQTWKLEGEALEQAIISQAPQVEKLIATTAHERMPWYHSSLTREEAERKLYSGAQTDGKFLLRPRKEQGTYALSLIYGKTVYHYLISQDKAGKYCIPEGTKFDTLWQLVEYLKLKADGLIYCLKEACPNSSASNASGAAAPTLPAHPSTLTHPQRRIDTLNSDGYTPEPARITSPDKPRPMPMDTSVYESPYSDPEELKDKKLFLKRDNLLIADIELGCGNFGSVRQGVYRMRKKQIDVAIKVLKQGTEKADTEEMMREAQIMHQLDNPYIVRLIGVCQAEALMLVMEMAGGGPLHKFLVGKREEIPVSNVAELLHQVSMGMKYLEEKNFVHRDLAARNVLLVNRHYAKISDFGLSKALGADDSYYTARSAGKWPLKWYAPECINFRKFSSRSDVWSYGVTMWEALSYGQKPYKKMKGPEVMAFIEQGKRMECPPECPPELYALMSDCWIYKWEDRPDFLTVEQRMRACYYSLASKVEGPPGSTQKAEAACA

In the case of `COc1cc(C(=O)N2CCC(N3CCN(C)CC3)CC2)ccc1Nc1ncc2c(n1)N(C1CCCC1)c1ccccc1C(=O)N2C`, the inhibition is -0.3% in [1] and -0.7% in [2].
As for `COc1cc(N2CCC(N3CCN(C)CC3)CC2)ccc1Nc1ncc2c(n1)N(C)c1ccccc1C(=O)N2C`, the residual activity is 87% in [3]; 99% in assay [6]; 90% in assay [11]; 76% in assay [17]; 83% in assay [19]; 70% in assay [21]. Further, the values for the residual activity in assay [22], in assay [25] and in [27] were 69%, 78% and 34%, respectively. Also, the inhibition worked out at 100% in assay [4]; 100% in assay [5]; 99% in [7]; 100% in assay [8]; 83% in [9]; 100% in assay [10]. Besides, the inhibition came out at 100% in assay [12]; 100% in assay [13]; 100% in [14]; 100% in assay [15]; 89% in [16]; 100% in assay [18]. In addition, the inhibition in [20] is 100%; in assay [23] it was 15%; in assay [24], 79%; in assay [26], 100%; in assay [28] it was 28%; in assay [29], 100%. The inhibition in assay [30] is 100%.

The term inhibition denotes the drop in the measured response relative to a control, in per cent.
